The data set is described as follows: gradient 5% acetonitrile 3 min, to 50% in 2 min, to 85% in 15 min, held 3 min, 100 µL/min. Particulars: column: Zorbax Extend-C18 2.1 x 50 mm; eluents: water / acetonitrile, 0.1% formic acid. A digest of the protocol: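 Retention times come from adduct peaks that were picked computationally and then checked by hand. The standards, pure and pooled in mixtures of ~100 molecules, were run on a Zorbax Extend-C18 column (2.1 × 50 mm, 1.8 μm) at 100 μL/min with water and acetonitrile, each with 0.1% formic acid. Detection was by quadrupole time-of-flight mass spectrometry in positive and negative ionization mode, with a dead volume of 40 μL and a dwell volume of 900 μL.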
For the compound `O=C(Cc1csc2nc(-c3ccccc3)cn12)Nc1ccc(F)c(Cl)c1`, the RP-LC retention time came out at 902 s.

`CCN1CCN(C(=O)c2n[nH]c3c2CC(C)CC3)CC1` (stereo not given) displayed an RP-LC retention time of 567 s.

The compound `O=C(CSC1=Nc2ccccc2N=C(c2ccc(F)cc2)C1)NC1CCCC1` came in with an RP-LC retention time of 1130 s.

In turn, `CCc1nc(N)n(CC(=O)Nc2ccc(C)cc2C)c(=O)c1C` showed an RP-LC retention time of 659 s.

Compound `Cc1ccc(Nc2c(-c3cccc(O)c3)nc3cnccn23)cc1Br` came in with an RP-LC retention time of 834 s.

`CCCn1ccc2sc(C)c(C(=O)NCc3ccc(OC)cc3)c2c1=O` gave an RP-LC retention time of 836 s.

Turning to `Cc1oc2nc3c(c(=O)n(CC(=O)OCc4ccccc4)c(=O)n3C)n2c1C`, the RP-LC retention time amounted to 840 s.

Consider `CCCn1c(-c2cccc(C(=O)NCC3CCCCC3)c2)nc2cccnc21`, for which the RP-LC retention time is 904 s.

Compound `CCCn1c(=O)sc2cc(S(=O)(=O)N3CCC(C(=O)NCc4ccccc4)CC3)ccc21` registered an RP-LC retention time of 932 s.

As for `O=C(Nc1ccccc1)C1CC(=O)N(c2n[nH]c3cccc(F)c23)C1` (stereo not given), the RP-LC retention time turned out to be 730 s.

`O=C(COc1ccc(Cl)cc1Cl)Nc1nc(-c2ccc(F)cc2)cs1` had an RP-LC retention time of 1250 s.

The compound `Cn1c(C2CCCN(S(C)(=O)=O)C2)nn(CC(=O)NC2CCCCC2)c1=O` (stereo not given) returned an RP-LC retention time of 606 s.

Turning to `Cc1cc(C)c(S(=O)(=O)N2CCn3c(nn(CC4CC4)c3=O)C2)c(C)c1`, the RP-LC retention time stood at 870 s.

`CCOc1ccc2ncc(C(=O)c3ccc(OC)cc3)c(N3CCN(C)CC3)c2c1` returned an RP-LC retention time of 599 s.

Compound `Cc1ccc(CNC(=O)Cn2cccc2-c2nnc(C3CCC3)o2)cc1` had an RP-LC retention time of 904 s.

For `CC(C)(NC(=O)c1ccoc1)c1nc2c(c(C(N)=O)n1)OCO2`, the RP-LC retention time worked out at 818 s.

Compound `COc1cc2c(cc1OC)C(/C=C/c1ccco1)=NCC2` displayed an RP-LC retention time of 693 s.

Consider `Cc1c(Cl)cccc1NC(=O)Cn1nc(N(C)C)c2ccccc2c1=O`, for which the RP-LC retention time was determined as 906 s.

The compound `Cc1nc2cc(N3CC(C(=O)NCc4ccc(F)c(Cl)c4)CC3=O)ccc2o1` (stereo not given) returned an RP-LC retention time of 750 s.

In turn, `O=C(NC1CCCCC1)C1CCN(c2cnc(N3CCCC3)nc2)CC1` registered an RP-LC retention time of 649 s.

As to `CC(C)c1cc(C2CCCN2C(=O)c2ccc3c(c2)OCO3)on1` (stereo not given), the RP-LC retention time amounted to 824 s.

In turn, `CCOC(=O)c1nc(Nc2ccc(C(=O)OC(C)C)cc2)c2ccccc2n1` displayed an RP-LC retention time of 989 s.

`O=C(NC1CC1)C1CCCN(C(=O)c2cc(-c3ccncc3)n[nH]2)C1` (stereo not given) returned an RP-LC retention time of 538 s.

Compound `Cc1ccc(C)c(N2CCN(C(=O)C3CCCN(c4ncnc5c4nc4n5CCCCC4)C3)CC2)c1` (stereo not given) yielded an RP-LC retention time of 1050 s.

`O=C(Nc1nc(-c2cccc([N+](=O)[O-])c2)cs1)c1cccc(Br)c1` came in with an RP-LC retention time of 1170 s.

`O=C(Cn1nc(N2CCSCC2)c2ccccc2c1=O)Nc1cccc(Br)c1` had an RP-LC retention time of 1030 s.

Compound `Cc1nn(-c2ccc(C(=O)N3CCCCC3)cc2)c2c1C(=O)CCC2` had an RP-LC retention time of 721 s.

In turn, `O=C(Nc1cccc(-c2ccc(N3CCOCC3)nn2)c1)Nc1cccc(Cl)c1F` displayed an RP-LC retention time of 770 s.

Consider `Cc1ccc(CNC(=O)c2sc(Nc3ccc(F)cn3)nc2C)cc1`, for which the RP-LC retention time was determined as 859 s.

Consider `COC(=O)c1cc(S(=O)(=O)N2CCCC2C(=O)Nc2ccccc2C(F)(F)F)cn1C` (stereo not given), for which the RP-LC retention time was found to be 918 s.

Compound `COc1ccc(Br)cc1CNC(=O)CN1C(=O)CCCc2ccccc21` showed an RP-LC retention time of 892 s.

With `CCc1cccc(NC(=O)N2C[C@@H](F)C[C@H]2C(=O)N2CCOCC2)c1`, the RP-LC retention time came to 664 s.

The compound `Cc1ccc(S(=O)(=O)N2CCOCC2)cc1-c1nnc(-c2ccccc2)o1` came in with an RP-LC retention time of 919 s.

In the case of `CC1(C)CC(=O)c2cn(-c3ccccc3)c(=O)c(C(=O)Nc3ccccc3)c2C1`, the RP-LC retention time was determined as 803 s.

The compound `O=C(Cn1cnc2c(nc3n2CCCCC3)c1=O)N1CCN(c2ccc(Cl)cc2)CC1` registered an RP-LC retention time of 750 s.

For the compound `COc1ccc(S(=O)(=O)N2CCCC(C)(C(=O)NCc3ccccc3)C2)cc1` (stereo not given), the RP-LC retention time is 917 s.

The compound `Cc1cccc(NC(=O)Cn2ncc3c(c2=O)N(C2CC2)C(=O)CS3)c1C` yielded an RP-LC retention time of 714 s.

For `CCc1nc2cc(-c3noc(-c4ccc(C)cc4)n3)ccc2o1`, the RP-LC retention time is 1270 s.

As to `Cc1ccc(C)c(Sc2ccc(N3CCC(C(=O)NCC(C)c4ccccc4)CC3)nn2)c1` (stereo not given), the RP-LC retention time was 938 s.

The compound `O=C(CSc1nnc2c3sc(N4CCCC4)nc3ncn12)Nc1ccc(F)c(Cl)c1` yielded an RP-LC retention time of 890 s.

The compound `Cc1cc(C)c2c(N3CCOCC3)nc(C(=O)NCC3CCCO3)nc2n1` (stereo not given) came in with an RP-LC retention time of 585 s.

Turning to `CCOc1ccc(-c2ccc(=O)n(Cc3nc(-c4cccc(C)c4)no3)n2)cc1`, the RP-LC retention time came out at 1120 s.

Take `CN1CCCn2cc(S(=O)(=O)Nc3ccc(Cl)cc3F)cc2C1=O`: the RP-LC retention time amounted to 727 s.

As for `CC(C)Cn1c(=O)c(C(=O)NCc2ccc(N3CCCCC3)cc2)nc2cccnc21`, the RP-LC retention time was found to be 666 s.

Regarding `Cc1ccc(C2CCCN2C(=O)c2cc(-c3ccco3)on2)cc1` (stereo not given), the RP-LC retention time was 1020 s.

The compound `N#Cc1ccc(N2C=C(C(=O)N3CCOCC3)S(=O)(=O)c3ccc(Cl)cc32)cc1` showed an RP-LC retention time of 764 s.

`Cc1ccc(NC(=O)C2CCN(S(=O)(=O)c3ccc4[nH]c5c(c4c3)CCCCC5)CC2)nc1` had an RP-LC retention time of 897 s.

The compound `O=C(CCSCc1ccccc1F)N1CCN(c2ccccn2)CC1` displayed an RP-LC retention time of 645 s.

The compound `COc1ccc(OCc2nc(-c3cccc(-c4ccnn4C)c3)no2)cc1` showed an RP-LC retention time of 1010 s.

In the case of `O=C(NC1CCCCC1)N(Cc1ccccn1)Cc1ccco1`, the RP-LC retention time came out at 635 s.

`Cc1ccn2cc(C(=O)N3CCN(c4ccccc4)CC3)nc2c1` yielded an RP-LC retention time of 634 s.

As to `Cc1noc(-c2nn(C)c3c2CN(C(=O)Nc2ccccc2Cl)CC3)n1`, the RP-LC retention time stood at 725 s.

On to `O=C(c1ccc2nnc(-c3ccc(Cl)cc3)n2c1)N1CCN(c2ccccn2)CC1`, for which the RP-LC retention time came out at 650 s.

Compound `Cn1nc2n(c1=O)CCN(C(=O)CC1=CCCCC1)CC2` gave an RP-LC retention time of 656 s.

In the case of `O=C(NC1CC1)c1ccccc1OCC1CCCN(Cc2cn[nH]c2-c2cccs2)C1` (stereo not given), the RP-LC retention time came to 615 s.

Turning to `CC(C)Cn1cc(S(=O)(=O)Nc2ccc(Cl)cc2)c2cccnc21`, the RP-LC retention time is 988 s.

Compound `O=C(N[C@H]1C[C@@H]2C[C@H]1CN2C(=O)c1ccc(Cl)s1)c1cccnc1` gave an RP-LC retention time of 659 s.

`Cn1cnc(S(=O)(=O)N2CC(N(Cc3ccccc3)C3CCOCC3)C2)c1` came in with an RP-LC retention time of 600 s.

With `COc1cc(OC)cc(C(=O)Nc2nc(-c3ccc4c(c3)N(C)C(=O)C(C)O4)cs2)c1` (stereo not given), the RP-LC retention time was determined as 1040 s.

Consider `CCOc1ccc(S(=O)(=O)N2CCC(C(=O)Nc3ccc(OC)cc3OC)CC2)cc1C`, for which the RP-LC retention time came out at 1010 s.

For the compound `Cc1ccc(NC(=O)C2CCCN(c3nc4ccsc4c(=O)n3-c3ccc(C)cc3)C2)cc1` (stereo not given), the RP-LC retention time stood at 996 s.

`Cc1cc(Cl)ccc1OCc1nc(-c2ccc3c(c2)nnn3CCC(=O)N2CCOCC2)no1` gave an RP-LC retention time of 974 s.

Consider `COc1ccc(NC(=O)C2CCc3nc(N4CCCC4)ncc3C2)c(C)c1` (stereo not given), for which the RP-LC retention time was 698 s.

As for `Cn1nc(-c2nnc(-c3ccc(F)cc3)o2)c2c1CCN(S(=O)(=O)c1cccc(C#N)c1)C2`, the RP-LC retention time was 891 s.

Compound `O=C1CCN(C(=O)CC2CCCCC2)CCCOCCN1` returned an RP-LC retention time of 646 s.

For the compound `CCS(=O)(=O)N1CCC2(CC1)CN(Cc1ccc(OC)cc1)C2=O`, the RP-LC retention time is 745 s.

In the case of `Cc1ccc(-c2nc3nc(C)cc(C)n3c2Nc2c(C)cccc2C)cc1`, the RP-LC retention time was 806 s.

Turning to `CCOc1ccc(NC(=O)C2CCCN(c3nccnc3Sc3ccccc3)C2)cc1` (stereo not given), the RP-LC retention time was 1100 s.

As to `O=C(C1CCCCC1)N1CCN(c2ccc(=O)n(-c3ccccc3)n2)CC1`, the RP-LC retention time came out at 790 s.

For the compound `COCc1c(C(=O)O)nnn1-c1ccc2c(c1)OCCO2`, the RP-LC retention time amounted to 666 s.

In turn, `Nc1nc(-c2ccc(Cl)cc2)nn1C(=O)Cc1ccc(Cl)cc1` came in with an RP-LC retention time of 1170 s.

`Cc1ccc(S(=O)(=O)N2CCC(CCNC(=O)NC(C)(C)C)CC2)cc1` displayed an RP-LC retention time of 885 s.

As to `CCOC(=O)Cc1c(C)nc2cc(-c3ccccc3)nn2c1C`, the RP-LC retention time turned out to be 1020 s.

Take `COc1ccccc1CNC(=O)Cn1nc2c(N3CCCCCC3)nccn2c1=O`: the RP-LC retention time was 694 s.

For `CNC(=O)c1cc(C(C)(C)C)[nH]n1`, the RP-LC retention time came to 618 s.

Compound `Cc1[nH]c2ccccc2c1C(=O)C(=O)N(C)c1ccccc1` gave an RP-LC retention time of 767 s.

Regarding `Cc1cc2nc(CN3CCN(Cc4ccccc4)CC3)c(=O)[nH]c2cc1C`, the RP-LC retention time was determined as 620 s.

In turn, `O=C(NCc1ccco1)c1cc2c(s1)CCN(C(=O)c1ccccc1)C2` displayed an RP-LC retention time of 758 s.

Take `Cc1ccsc1C(=O)NC1CCc2nnc(C3CC3)n2CC1` (stereo not given): the RP-LC retention time amounted to 587 s.

Take `COCCCN(CC(=O)N1CCNCC1)C(=O)c1ccc(F)c(Cl)c1`: the RP-LC retention time was 596 s.

For the origin of these results see the METLIN SMRT retention time set (Domingo-Almenara et al. 2019).
